Values quoted from earlier work as cited in PubChem BioAssay AID1259410 (Chemical Carcinogenesis Research Information System (CCRIS), 2018).

System: rodent tumor promotion studies, tumor incidence
Test: CCRIS tumor promotion studies
Source text: The CCRIS database contains chemical records with carcinogenicity, mutagenicity, tumor promotion, and tumor inhibition test results. It was developed by the National Cancer Institute (NCI). Data are derived from studies cited in primary journals, current awareness tools, NCI reports, and other sources. Test results have been reviewed by experts in carcinogenesis and mutagenesis.
CCRIS provides historical information from the years 1985 - 2011. It is no longer updated.
This is an archive assay for CCRIS tumor promotion studies.

## CCCCCCCC/C=C\CCCCCCCC(=O)OC
Carcinogen: 7,12-DIMETHYLBENZ(A)ANTHRACENE, Doses [Carcinogen]: TOP, Route [Carcinogen]: DERMAL, Route [Promoter]: DERMAL, Species: MOUSE, Strain/Sex: MALE,FEMALE
  outcome: integumentary system (skin)

## O=C(O)O
Carcinogen: N-BUTYL-N-(4-HYDROXYBUTYL)NITROSAMINE, 3817-11-6, Doses [Carcinogen]: 0.05% IN DRINKING WATER FOR 4 WK, Doses [Promoter]: 0, 3% IN DIET FOR 32 WK BEGINNING 3 D POST LAST CARCINOGEN DOSE (STUDY DURATION: 36 WK, 3 D), Route [Carcinogen]: ORAL, Route [Promoter]: ORAL, Species: RAT, Strain/Sex: F344/MALE
  outcome: urinary bladder: papilloma, carcinoma
Carcinogen: N-BUTYL-N-(4-HYDROXYBUTYL)NITROSAMINE, 3817-11-6, Doses [Carcinogen]: 0.05% IN DRINKING WATER FOR 4 WK, Doses [Promoter]: 0, 3.36% IN DIET BEGINNING POST LAST CARCINOGEN DOSE AND CONTINUING FOR 32 WK (STUDY DURATION: 37 WK), Route [Carcinogen]: ORAL, Route [Promoter]: ORAL, Species: RAT, Strain/Sex: WISTAR/MALE
  outcome: urinary bladder: papilloma
Carcinogen: N-BUTYL-N-(4-HYDROXYBUTYL)NITROSAMINE; 3817-11-6; Doses [Carcinogen]: 0.05% IN DRINKING WATER FOR 4 WK; Doses [Promoter]: 0; 4% IN DIET BEGINNING POST LAST CARCINOGEN DOSE AND CONTINUING FOR 32 WK STUDY DURATION: 37 WK), Route [Carcinogen]: ORAL, Route [Promoter]: ORAL, Species: RAT, Strain/Sex: WISTAR/MALE
  outcome: urinary bladder: papilloma
Carcinogen: O-PHENYLPHENOL, 90-43-7, Doses [Carcinogen]: 1.25% IN DIET FOR 104 WK, Doses [Promoter]: 0, 0.16% IN DIET FOR 104 WK (STUDY DURATION: 104 WK), Route [Carcinogen]: ORAL, Route [Promoter]: ORAL, Species: RAT, Strain/Sex: F344/MALE
  outcome: bladder: carcinoma
Carcinogen: O-PHENYLPHENOL, 90-43-7, Doses [Carcinogen]: 1.25% IN DIET FOR 104 WK, Doses [Promoter]: 0, 0.32% IN DIET FOR 104 WK (STUDY DURATION: 104 WK), Route [Carcinogen]: ORAL, Route [Promoter]: ORAL, Species: RAT, Strain/Sex: F344/MALE
  outcome: bladder: carcinoma
Carcinogen: O-PHENYLPHENOL, 90-43-7, Doses [Carcinogen]: 1.25% IN DIET FOR 104 WK, Doses [Promoter]: 0, 0.64% IN DIET FOR 104 WK (STUDY DURATION: 104 WK), Route [Carcinogen]: ORAL, Route [Promoter]: ORAL, Species: RAT, Strain/Sex: F344/MALE
  outcome: bladder: carcinoma

## CN(CCCC(=O)O)N=O
Carcinogen: 1-NITROSO-1,3-DIMETHYLUREA, 13256-32-1, Doses [Carcinogen]: 10 MG/ML IN ETHYL ACETATE/CORN OIL (1:1) 1/WK FOR 2 WK, Doses [Promoter]: 0, 100 MG/L IN DRINKING WATER 5 D/WK FOR 40 WK BEGINNING 1/WK POST CARCINOGEN TREATMENT (STUDY DURATION: 43 WK), Route [Carcinogen]: GAVAGE, Route [Promoter]: ORAL, Species: RAT, Strain/Sex: F344/MALE
  outcome: urinary bladder: transitional cell carcinoma
Carcinogen: NITROSOBIS(2-OXOPROPYL)AMINE, 60599-38-4, Doses [Carcinogen]: 12 MG/ML IN ETHYLACETATE/CORN OIL (1:1) 2/WK FOR 2 WK, Doses [Promoter]: 0, 100 MG/L IN DRINKING WATER 5 D/WK FOR 40 WK BEGINNING 1 WK POST CARCINOGEN TREATMENT (STUDY DURATION: 43 WK), Route [Carcinogen]: GAVAGE, Route [Promoter]: ORAL, Species: RAT, Strain/Sex: F344/MALE
  outcome: colon: adenocarcinoma; urinary bladder: transitional cell carcinoma

## Cc1ccccc1O
Carcinogen: 7,12-DIMETHYLBENZ(A)ANTHRACENE, Doses [Carcinogen]: DERMAL, Route [Carcinogen]: DERMAL, Route [Promoter]: DERMAL, Species: MOUSE, Strain/Sex: FEMALE
  outcome: integumentary system (skin)

## CCC1(CC)C(=O)NC(=O)NC1=O
Carcinogen: DIETHYLNITROSAMINE, 55-18-5, Doses [Carcinogen]: 80 MG/KG BW ONCE, Doses [Promoter]: 0, 0.5% IN DIET FOR 39 WK BEGINNING 1 WK POST CARCINOGEN DOSE (STUDY DURATION: 40 WK), Route [Carcinogen]: INTRAPERITONEAL, Route [Promoter]: ORAL, Species: RAT, Strain/Sex: F344/MALE
  outcome: liver: tumor

## O=c1cc[nH]c(=O)[nH]1
Carcinogen: N-ETHYL-N-HYDROXYETHYLNITROSAMINE, 13147-25-6, Doses [Carcinogen]: 0.05% IN DRINKING WATER FOR 3 WK, Doses [Promoter]: 0, 3% IN DIET FOR 3 WK ADMINISTERED SIMULTANEOUSLY WITH CARCINOGEN (STUDY DURATION: 52 WK), Route [Carcinogen]: ORAL, Route [Promoter]: ORAL, Species: RAT, Strain/Sex: F344/FEMALE
  outcome: kidney: adenocarcinoma
Carcinogen: N-METHYL-N-NITROSOUREA, 684-93-5, Doses [Carcinogen]: 20 MG/KG 2/WK FOR 4 WK, Doses [Promoter]: 0, 3% IN DIET FOR 20 WK BEGINNING POST LAST CARCINOGEN DOSE (STUDY DURATION: 24 WK), Route [Carcinogen]: INTRAPERITONEAL, Route [Promoter]: ORAL, Species: RAT, Strain/Sex: F344/MALE
  outcome: urinary bladder: carcinoma

## c1c[nH]cn1
Carcinogen: N-METHYL-N-NITROSOUREA, 684-93-5, Doses [Carcinogen]: 40 MG/KG ONCE, Doses [Promoter]: 1000 MG/KG OF HIGH (20%) FAT DIET BEGINNING 1 WK POST CARCINOGEN DOSE AND CONTINUING FOR DURATION OF STUDY (STUDY DURATI, Route [Carcinogen]: SUBCUTANEOUS, Route [Promoter]: ORAL, Species: RAT, Strain/Sex: SPRAGUE-DAWLEY/FEMALE
  outcome: mammary gland: tumor

## N
Carcinogen: N-METHYL-N'-NITRO-N-NITROSOGUANIDINE, 70-25-7, Doses [Carcinogen]: 83 MG/L IN DRINKING WATER FOR 24 WK, Doses [Promoter]: 0, 0.01% IN DRINKING WATER BEGINNING POST LAST CARCINOGEN DOSE AND CONTINUING FOR 24 WK (STUDY DURATION: 48 WK), Route [Carcinogen]: ORAL, Route [Promoter]: ORAL, Species: RAT, Strain/Sex: SPRAGUE-DAWLEY/MALE
  outcome: stomach: tumor
Carcinogen: N-METHYL-N'-NITRO-N-NITROSOGUANIDINE, 70-25-7, Doses [Carcinogen]: 83 MG/L IN DRINKING WATER FOR 24 WK, Doses [Promoter]: 0, 0.01% IN DRINKING WATER FOR 24 WK BEGINNING POST CARCINOGEN TREATMENT (STUDY DURATION: 48 WK), Route [Carcinogen]: ORAL, Route [Promoter]: ORAL, Species: RAT, Strain/Sex: SPRAGUE-DAWLEY/MALE
  outcome: stomach: adenocarcinoma

## CCCCCCCCCCCCCCCCCCCCCCCCCCCC
Carcinogen: 7,12-DIMETHYLBENZ(A)ANTHRACENE, Doses [Carcinogen]: TOP, Route [Carcinogen]: DERMAL, Route [Promoter]: DERMAL, Species: MOUSE, Strain/Sex: MALE
  outcome: integumentary system (skin)

## CCCC(C)C1(CC)C(=O)NC(=O)NC1=O (stereo unspecified)
Carcinogen: N-NITROSODIETHYLAMINE, 55-18-5, Doses [Carcinogen]: 75 MG/KG BW IN 0.85% SALINE ONCE, Doses [Promoter]: 0, 485 PPM IN DIET FOR DURATION OF STUDY BEGINNING 2 WK POST CARCINOGEN DOSE (STUDY DURATION: 78 WK), Route [Carcinogen]: INTRAPERITONEAL, Route [Promoter]: ORAL, Species: RAT, Strain/Sex: F344/MALE
  outcome: liver: carcinoma, adenoma

## O=c1cc(-c2ccccc2)oc2ccc3ccccc3c12
Carcinogen: (+/-)-TRANS-7,8-DIHYDROBENZO[A]PYRENE-7,8-DIOL, 61443-57-0, Doses [Carcinogen]: 1 UG CO-ADMINISTERED WITH PROMOTER DOSE, Doses [Promoter]: 1 UG INJECTED INTO NEWLY HATCHED SAC-FRY CO-ADMINISTERED WITH CARCINOGEN DOSE (STUDY DURATION: 9 MO), Route [Carcinogen]: INJECTION, Route [Promoter]: INJECTION, Species: FISH, Strain/Sex: RAINBOW TROUT/MALE,FEMALE
  outcome: liver: tumor
Carcinogen: DIETHYLNITROSAMINE, 55-18-5, Doses [Carcinogen]: 200 MG/KG BW ONCE (STUDY DURATION: 28 WK), Doses [Promoter]: 1% IN DIET FOR 26 WK BEGINNING 2 WK POST LAST CARCINOGEN DOSE, 2/3 PARTIAL HEPATECTOMY PERFORMED AT WEEK 3 (STUDY DURATI, Route [Carcinogen]: INTRAPERITONEAL, Route [Promoter]: ORAL, Species: RAT, Strain/Sex: F344/MALE
  outcome: liver: tumor
Doses [Carcinogen]: 0.5 PPM AQUEOUS SOLUTION FOR 30 MIN EXPOSURE OF EMBRYOS 21 D AFTER FERTILIZATION, Doses [Promoter]: 0.05% IN DIET FOR 8 WK (STUDY DURATION: 1 YR), Route [Carcinogen]: IMMERSION, Route [Promoter]: ORAL, Species: FISH, Strain/Sex: MT. SHASTA RAINBOW TROUT
  outcome: liver: hepatocellular carcinoma or mixed carcinoma or hepatocellular adenoma
